In patent publication US20240159675A1, “METHODS AND DEVICES FOR RATIOMETRIC CHARACTERIZATION OF FLUORESCENT PARTICLES” (NANOTEMPER TECHNOLOGIES GMBH, priority 2021, published 2024):
Like-named read-outs stand apart in the source and are kept apart here. {Cy5} = Cy5 dye label

Experiments:
[1] = biological target: Cy5-labeled DNA aptamer; test: Ratiometric measurement with the dual-emission configuration, AMP dilution series (Example 1); format: binding; details: 20 nM Cy5-labeled DNA aptamer, read-out: Kd of the interaction
Method: (§1) A 14-point 1-to-1 dilution series of unlabeled AMP was prepared. The DNA aptamer was fluorescently labeled with Cy5 and added in equal amounts to the AMP dilution series to obtain a final sample concentration of 20 nM. The highest concentration of AMP corresponded to 5 mM. For measurements with a standard fluorescence microplate-reader (CLARIOstar, BMG Labtech) 95 […] of the sample were loaded into a micro-well plate.
(§2) For the microplate-reader measurements, the sample was excited at a wavelength of 590 nm and the emission was first detected at a wavelength of 628 nm to 652 nm. Then, the sample was again excited at the 590 nm wavelength and the emission was detected at a wavelength of 665 nm to 725 nm. Three subsequent fluorescence intensity measurements of the dilution series were run.
When using lower sample concentrations, i.e. 250 pM, for the ratiometric measurement according to the present invention, the signal-to-noise ratio (S/N) is still very good (19.8) and a Kd of the interaction can be easily determined (FIG. 10C).

[2] = biological target: Cy5-labeled DNA aptamer; test: Ratiometric measurement with a standard fluorescence microplate-reader, AMP dilution series (Example 1); format: binding; details: 20 nM Cy5-labeled DNA aptamer, read-out: dissociation constant (Kd), midpoint of dose-response curve
Method: as §1, §2
In order to characterize the interaction with the fluorescence microplate-reader, the ratio between the fluorescence intensities per well was calculated manually by using a commercially available calculation tool (Microsoft Excel). The fluorescence detected at the higher wavelength was divided by the fluorescence detected at the lower wavelength. The sigmoidal dose-response curve provided in FIG. 10A starts at a ratio value of approx. 0.95 and ends at a ratio value of approx. 0.90. The midpoint, which corresponds to the dissociation constant (Kd) of the interaction, lies at approx. 20-30 μM. […]

[3] = biological target: Cy5-labeled DNA aptamer for adenosine; test: Kd-over-time curve, dual-emission configuration with IR laser, AMP (Example 10); format: binding; details: FIG. 23A
Method: For the aptamer, a 12-point 1-to-1 dilution series of unlabeled AMP was prepared. The DNA aptamer was fluorescently labeled with Cy5 and added in equal amounts to the AMP dilution series to obtain a final sample concentration of 20 nM. The highest concentration of AMP corresponded to 2 mM.
(§3) At the timepoint 0 s, an IR laser was switched on. The response of the fluorescence intensity was simultaneously measured for 6 s (aptamer), respectively 21 s (DNA hybridization).
(§4) From above it is evident that information on the binding interaction (e.g. Kd) can be derived from any “vertical” slice in time along the ratiometric traces, when the method of the present invention is used in combination with fast IR laser heating. A new type of curve, which can be described as Kd-over-time curve can be generated. From this curve not only information on the thermodynamics but also on the binding kinetics of the interaction can be determined. In particular, if the equilibration kinetics of an interaction is slower than the heating with the IR laser, the Kd-over-time curve will show a characteristic lag.
(§5) The Kd-over-time curves provided in FIG. 23 reveal three different interactions with different dissociation constants Kd and binding kinetics.

[4] = Fluorescence ratio of labeled protein over time at room temperature (Example 9); format: physicochemical; details: 20 nM labeled protein, 0, 3, 8 and 19 minutes
Method: The labeled protein was then diluted to a concentration of 20 nM and loaded into a polymer-coated borosilicate glass capillary (Monolith NT.115 Premium Capillaries, MO-K025, NanoTemper Technologies).
The sample was excited at a wavelength of 591 nm. […] Measurements were performed directly after dilution (t=0 min) and again after 3, 8 and 19 minutes inside the capillary.

[5] = biological target: T1, lysozyme (Gallus gallus, UniProt P00698); test: Emission spectrum of fluorescently labeled lysozyme alone and in complex with NAG3; format: binding; details: corresponding to the spectral shift (Table 3)
T1 sequence (P00698 19-147): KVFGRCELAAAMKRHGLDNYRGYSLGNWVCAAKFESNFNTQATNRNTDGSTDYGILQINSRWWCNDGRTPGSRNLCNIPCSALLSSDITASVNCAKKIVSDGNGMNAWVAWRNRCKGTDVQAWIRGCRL
Text: (§6) Shifts of 3 nm and of approx. 500 pm correspond to relative changes in the fluorescence ratio of about 37.3% and 5.5%, respectively (Table 3).

[6] = biological target: T1, lysozyme; test: Ratio 350 nm/330 nm of intrinsic tryptophan fluorescence during thermal melting ramp 35° C. to 95° C.; format: binding; details: increasing / very high concentrations of NAG3, unlabeled lysozyme
Method: To monitor the temperature of denaturation, each sample is heated from 35° C. to 95° C. […] This shift cannot be used to extract the dissociation constant of this interaction.
The alterations in the fluorescence spectrum are independent of the nature of the fluorescent label, i.e. they equally appear in intrinsic as well as extrinsic fluorescent labels. However, the extend of the alterations in the fluorescence spectrum may be increased for certain classes of labels.

[7] = test system: complementary 11-mer DNA strand labeled with Cy5; test: Kd-over-time curve of DNA hybridization, dual-emission configuration with IR laser (Example 10); format: binding
Method: For the DNA hybridization, a 16-point 1-to-1 dilution series of the unlabeled 11-mer (sequence: 5′ CCT GAA GTC C 3′) was prepared. The complementary 11-mer (sequence: 5′ GGA CTT CAG G 3′) was fluorescently labeled at its 5′ end with Cy5 and added in equal amounts to the dilution series to obtain a final sample concentration of 10 nM. The highest concentration of the unlabeled 11-mer corresponded to 100 μM.
as §3, §4, §5

[8] = biological target: fluorescently labeled streptavidin (Streptomyces avidinii, UniProt P22629); test: Ratiometric dual-emission dose-response, biotin dilution series (Example 4); format: binding; details: 20 nM streptavidin
fluorescently labeled streptavidin, sequence (P22629 25-183, species assumed): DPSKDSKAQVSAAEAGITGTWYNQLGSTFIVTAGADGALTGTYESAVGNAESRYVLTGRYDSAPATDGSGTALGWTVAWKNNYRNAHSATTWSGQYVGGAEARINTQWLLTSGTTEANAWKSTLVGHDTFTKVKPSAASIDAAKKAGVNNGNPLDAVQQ
Method: A 12-point 1-to-1 dilution series of unlabeled biotin was prepared. […] The highest concentration of biotin corresponded to 500 nM.
As evident from the dose-response curve shown in FIG. 17, the ratio changed from a value of approx. 2.2 to approx. 1.2 when streptavidin is unbound or in complex with biotin, respectively. Since the target concentration is much higher than the Kd, a characteristic kink at the stoichiometry point at a concentration of 80 nM biotin can be observed.

[9] = biological target: streptavidin (Streptomyces avidinii, UniProt P22629); test: Emission spectrum of fluorescently labeled streptavidin alone and in complex with biotin; format: binding
streptavidin, sequence (P22629 25-183, species assumed): as above
Text: as §6

## Nc1ncnc2c1ncn2[C@@H]1O[C@H](COP(=O)(O)O)[C@@H](O)[C@H]1O [AMP, adenosine monophosphate]
[1]
  Kd: 39.3 µM
[2]
  Kd: 20 to 30 µM
[3]; Kd-over-time curve
  Kd: ~30 µM
[3]; estimated from Kd-over-time curve
  koff: greater than 10 s^−1

## Mitogen-activated protein kinase 14 (p38-α): Mitogen-activated protein kinase 14, fluorescently labeled with Protein Labeling Kit RED-NHS 2nd Generation
[4]
  stability at room temperature (fluorescence ratio over about 20 minutes): not stable at room temperature but gradually denatures

## CC(=O)N[C@H]1[C@H](O[C@H]2[C@H](O)[C@@H](NC(C)=O)C(O)O[C@@H]2CO)O[C@H](CO)[C@@H](O[C@@H]2O[C@H](CO)[C@@H](O)[C@H](O)[C@H]2NC(C)=O)[C@@H]1O (stereo partly drawn) [NAG3, Tri-N-acetyl-D-glucosamine]
[5]
  relative change in the fluorescence ratio: ~5.5%
[6]
  effect on thermal denaturation of lysozyme: thermal stabilization

## 11-mer complementary DNA strands: unlabeled 11-mer (5′ CCT GAA GTC C 3′) titrated against complementary 11-mer (5′ GGA CTT CAG G 3′) labeled at 5′ end with Cy5 (chain 1 CCTGAAGTCC; chain 2 GGACTTCAGG; chain 1: DNA, backbone not given here; chain 2: DNA, 5' {Cy5}, backbone not given here)
[7]; measured at 22° C., FIG. 23C
  koff: smaller than 0.01 s^−1
[7]; measured at 22° C., FIG. 23C, read-out: Kd
  Kd: ~0.005 µM
[7]; measured at 32° C., estimated, FIG. 23B
  koff: approx. 1 s^−1
[7]; sample temperature 22° C., FIG. 24B, read-out: Kd value at start of IR laser on-time
  Kd: ~0.01 µM
[7]; temperature after IR laser heating approx. 32° C., FIG. 24B, read-out: Kd value after IR laser heating
  Kd: ~0.5 µM

## O=C(O)CCCC[C@@H]1SC[C@@H]2NC(=O)N[C@@H]21 [biotin]
[8]; concentration of biotin
  stoichiometry point (kink in dose-response curve): 80 nM
[8]; unbound approx. 2.2
  ratio 670 nm/650 nm of streptavidin in complex with biotin: approx. 1.2
[9]; corresponding to the spectral shift (Table 3)
  relative change in the fluorescence ratio: about 37.3%
[9]; streptavidin 200 nM, biotin 2 μM, excitation 605 nm
  shift of the maximum emission peak wavelength: 3 nm
